# Biological target: T1, ssGDH (glucose dehydrogenase from Sulfolobus solfataricus) (Saccharolobus solfataricus, UniProt O93715)
# T1 construct: gene gdh; full-length, recombinant from pET3a, heat step (70 °C), anion exchange and gel filtration, no tag mentioned; homotetramer; five Trp per monomer
# Assay: steady-state NADPH formation at […] nm
# Format: biochemical
# Details: apparent substrate inhibition; co-substrate NADP+; 100 mM HEPES pH 8; temperature not stated with the value
# T1 sequence (O93715 whole entry): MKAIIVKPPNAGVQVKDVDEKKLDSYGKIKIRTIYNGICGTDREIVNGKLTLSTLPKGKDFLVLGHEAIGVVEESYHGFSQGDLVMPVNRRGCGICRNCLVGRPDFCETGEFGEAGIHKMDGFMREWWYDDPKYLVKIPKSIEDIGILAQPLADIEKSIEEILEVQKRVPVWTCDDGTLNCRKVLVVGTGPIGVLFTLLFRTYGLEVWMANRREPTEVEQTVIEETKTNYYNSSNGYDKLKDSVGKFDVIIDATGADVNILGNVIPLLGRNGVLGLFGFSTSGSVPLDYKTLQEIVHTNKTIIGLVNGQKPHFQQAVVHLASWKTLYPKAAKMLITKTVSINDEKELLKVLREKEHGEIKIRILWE
smiles,measurement,value
"OC[C@@H]1C[C@H](O)[C@@H](O)C(O)O1 (stereo partly drawn) [4-deoxy, 4-deoxy-D-glucose]",Ki,29.5 ± 8.7 mM

# Source: publication PMC8689651, “Chemical Mapping Exposes the Importance of Active Site Interactions in Governing the Temperature Dependence of Enzyme Turnover” (ACS Catalysis, 2021)
